Tests used:
Adenosine receptor A2a = Adenosine receptor A2a (Rattus norvegicus, UniProt P30543); assay: biochemical
Adenosine receptor A1 = biological target: T1, Adenosine receptor A1 (Rattus norvegicus, UniProt P25099); assay: biochemical
T1 sequence (P25099 whole entry): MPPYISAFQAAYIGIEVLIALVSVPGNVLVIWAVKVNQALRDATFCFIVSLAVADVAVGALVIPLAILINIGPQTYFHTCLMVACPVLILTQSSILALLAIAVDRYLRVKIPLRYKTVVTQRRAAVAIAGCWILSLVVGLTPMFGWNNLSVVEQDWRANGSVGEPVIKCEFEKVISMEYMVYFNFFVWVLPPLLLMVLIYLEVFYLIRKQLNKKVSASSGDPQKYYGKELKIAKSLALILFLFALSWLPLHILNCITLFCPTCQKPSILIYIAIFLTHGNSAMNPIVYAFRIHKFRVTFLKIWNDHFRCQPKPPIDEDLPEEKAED

Adenosine receptor A2a, sequence (P30543 whole entry): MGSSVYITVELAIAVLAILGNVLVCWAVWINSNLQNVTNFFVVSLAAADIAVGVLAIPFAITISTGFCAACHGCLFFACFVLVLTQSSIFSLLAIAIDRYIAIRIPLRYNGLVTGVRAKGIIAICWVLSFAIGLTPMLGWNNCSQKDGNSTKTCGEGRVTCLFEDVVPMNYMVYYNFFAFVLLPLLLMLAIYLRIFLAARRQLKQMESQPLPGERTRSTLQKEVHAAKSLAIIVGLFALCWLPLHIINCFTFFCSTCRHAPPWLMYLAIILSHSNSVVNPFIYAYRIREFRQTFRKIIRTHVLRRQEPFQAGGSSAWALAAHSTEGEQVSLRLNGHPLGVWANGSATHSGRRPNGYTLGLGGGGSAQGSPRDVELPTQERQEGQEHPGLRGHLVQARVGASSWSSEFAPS

Row | Ki (Adenosine receptor A2a) | Ki (Adenosine receptor A1) | Structure (SMILES)
1 | 19 nM | 1800 nM | Nc1nc(-c2ccc(C(=O)N3CCOCC3)cc2)cn2nc(-c3ccco3)nc12
2 | 75 nM | – | CC(=O)c1cccc(-c2cn3nc(-c4ccco4)nc3c(N)n2)c1
3 | 470 nM | – | Nc1nc(-c2cccc(CO)c2)cn2nc(-c3ccco3)nc12
4 | 460 nM | – | Nc1nc(-c2cccc([N+](=O)[O-])c2)cn2nc(-c3ccco3)nc12
5 | 270 nM | – | COc1cccc(-c2cn3nc(-c4ccco4)nc3c(N)n2)c1
6 | 70 nM | 120 nM | CN(C)C(=O)c1cccc(-c2cn3nc(-c4ccco4)nc3c(N)n2)c1
7 | 110 nM | – | NC(=O)c1cccc(-c2cn3nc(-c4ccco4)nc3c(N)n2)c1
8 | 160 nM | – | CC(=O)Nc1cccc(-c2cn3nc(-c4ccco4)nc3c(N)n2)c1
9 | > 250 nM | > 250 nM | Nc1nc(C(=O)N2CCN(Cc3ccccc3)CC2)cn2nc(-c3ccco3)nc12
10 | 730 nM | 3 nM | Nc1nc(-c2cccc(C(=O)N3CCN(c4ccncc4)CC3)c2)cn2nc(-c3ccco3)nc12
11 | 180 nM | > 250 nM | Nc1nc(-c2cccc(C(=O)NCCc3ccc(O)cc3)c2)cn2nc(-c3ccco3)nc12
12 | 680 nM | > 250 nM | Nc1nc(-c2cccc(C(=O)N3CCN(Cc4ccccc4)CC3)c2)cn2nc(-c3ccco3)nc12
13 | 630 nM | – | Nc1cccc(-c2cn3nc(-c4ccco4)nc3c(N)n2)c1
14 | 140 nM | 290 nM | CC(C)NC(=O)c1cccc(-c2cn3nc(-c4ccco4)nc3c(N)n2)c1
15 | 160 nM | – | N#Cc1cccc(-c2cn3nc(-c4ccco4)nc3c(N)n2)c1
16 | 240 nM | < 250 nM | Nc1nc(-c2cccc(C(=O)N3CCOCC3)c2)cn2nc(-c3ccco3)nc12
17 | 370 nM | – | CCOC(=O)c1cccc(-c2cn3nc(-c4ccco4)nc3c(N)n2)c1
18 | 110 nM | – | CS(=O)(=O)c1cccc(-c2cn3nc(-c4ccco4)nc3c(N)n2)c1
19 | > 250 nM | > 250 nM | Nc1nc(C(=O)N2CCN(c3ccncc3)CC2)cn2nc(-c3ccco3)nc12
20 | 140 nM | – | CN(C)c1cccc(-c2cn3nc(-c4ccco4)nc3c(N)n2)c1
21 | 460 nM | – | Nc1nc(-c2cccnc2)cn2nc(-c3ccco3)nc12
22 | 680 nM | – | CC(C)c1cccc(-c2cn3nc(-c4ccco4)nc3c(N)n2)c1
23 | > 1000 nM | – | Nc1nc(-c2cccc(C(=O)O)c2)cn2nc(-c3ccco3)nc12

The next lines start with the compound.

Row | Structure (SMILES) | Ki (Adenosine receptor A2a) | Ki (Adenosine receptor A1)
24 | Nc1nc(-c2ccc(C(=O)NCCc3ccc(O)cc3)cc2)cn2nc(-c3ccco3)nc12 | 830 nM | 36 nM
25 | N#Cc1ccc(-c2cn3nc(-c4ccco4)nc3c(N)n2)cc1 | > 1000 nM | –
26 | Nc1nc(-c2cccc(C(F)(F)F)c2)cn2nc(-c3ccco3)nc12 | 220 nM | –
27 | Nc1nc(C(=O)NCCc2ccc(O)cc2)cn2nc(-c3ccco3)nc12 | 1 nM | 320 nM
28 | Nc1nc(-c2cccc3ccccc23)cn2nc(-c3ccco3)nc12 | 420 nM | –
29 | Nc1ccc(-c2cn3nc(-c4ccco4)nc3c(N)n2)cc1 | > 1000 nM | –
30 | Nc1nc(-c2ccc(C(=O)NCCCn3ccnc3)cc2)cn2nc(-c3ccco3)nc12 | 330 nM | > 250 nM
31 | Nc1nc(C(=O)NCCCc2ccccc2)cn2nc(-c3ccco3)nc12 | 28 nM | 240 nM
32 | CN(Cc1ccccc1)C(=O)c1cn2nc(-c3ccco3)nc2c(N)n1 | 27 nM | 160 nM
33 | CCN(CC)C(=O)c1cccc(-c2cn3nc(-c4ccco4)nc3c(N)n2)c1 | 1 nM | 41 nM
34 | Nc1nc(-c2ccc(CO)cc2)cn2nc(-c3ccco3)nc12 | > 1000 nM | –
35 | Nc1nc(-c2cncnc2)cn2nc(-c3ccco3)nc12 | 360 nM | –
36 | Nc1nc(-c2ccco2)cn2nc(-c3ccco3)nc12 | 400 nM | –
37 | Nc1nc(C(=O)N2CCOCC2)cn2nc(-c3ccco3)nc12 | > 250 nM | > 250 nM
38 | Nc1nc(C(=O)NCc2ccccc2)cn2nc(-c3ccco3)nc12 | 2 nM | 14 nM
39 | CCCCNC(=O)c1cn2nc(-c3ccco3)nc2c(N)n1 | 1 nM | 120 nM
40 | Nc1nc(-c2cccc3cccnc23)cn2nc(-c3ccco3)nc12 | 250 nM | –
41 | Nc1nc(-c2ccc([N+](=O)[O-])cc2)cn2nc(-c3ccco3)nc12 | > 1000 nM | –
42 | Nc1nc(-c2ccc(C(F)(F)F)cc2)cn2nc(-c3ccco3)nc12 | > 1000 nM | –
43 | CN(C)c1ccc(-c2cn3nc(-c4ccco4)nc3c(N)n2)cc1 | > 1000 nM | –
44 | CCOC(=O)c1ccc(-c2cn3nc(-c4ccco4)nc3c(N)n2)cc1 | > 1000 nM | –
